Patent US10994015B2, “EGFR proteolysis targeting chimeric molecules and associated methods of use” (Arvinas Operations, Inc., priority 2016, dated 2021)

What was measured:
[1] = molecular target: EGFR Exon20NPG (Homo sapiens (Human), UniProt P00533, INS770NPG); experiment: TR-FRET assay for ERBB kinases; type: biochemical; conditions: geometric mean if measured more than once
How it was run: (§1)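 Phosphorylation of fluorescein-labeled poly-GluTyr read as TR-FRET using Tb-pY20 antibody after EDTA stop, with 340 nm excitation. Kinase reaction ran 10 min at room temperature following 10 min compound pre-incubation; substrate mix held 3 mM ATP and 30 µM peptide before addition. Buffer was HEPES pH 7.5.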

[2] = molecular target: HER3 (Homo sapiens (Human), UniProt P21860); experiment: TR-FRET assay for ERBB kinases; type: biochemical; conditions: geometric mean if measured more than once
[3] = molecular target: EGFR L858R/T790M (Homo sapiens (Human), UniProt P00533, L858R/T790M); experiment: TR-FRET assay for ERBB kinases; type: biochemical; conditions: geometric mean if measured more than once
EGFR L858R/T790M, sequence (P00533 25-1210 T790M/L858R): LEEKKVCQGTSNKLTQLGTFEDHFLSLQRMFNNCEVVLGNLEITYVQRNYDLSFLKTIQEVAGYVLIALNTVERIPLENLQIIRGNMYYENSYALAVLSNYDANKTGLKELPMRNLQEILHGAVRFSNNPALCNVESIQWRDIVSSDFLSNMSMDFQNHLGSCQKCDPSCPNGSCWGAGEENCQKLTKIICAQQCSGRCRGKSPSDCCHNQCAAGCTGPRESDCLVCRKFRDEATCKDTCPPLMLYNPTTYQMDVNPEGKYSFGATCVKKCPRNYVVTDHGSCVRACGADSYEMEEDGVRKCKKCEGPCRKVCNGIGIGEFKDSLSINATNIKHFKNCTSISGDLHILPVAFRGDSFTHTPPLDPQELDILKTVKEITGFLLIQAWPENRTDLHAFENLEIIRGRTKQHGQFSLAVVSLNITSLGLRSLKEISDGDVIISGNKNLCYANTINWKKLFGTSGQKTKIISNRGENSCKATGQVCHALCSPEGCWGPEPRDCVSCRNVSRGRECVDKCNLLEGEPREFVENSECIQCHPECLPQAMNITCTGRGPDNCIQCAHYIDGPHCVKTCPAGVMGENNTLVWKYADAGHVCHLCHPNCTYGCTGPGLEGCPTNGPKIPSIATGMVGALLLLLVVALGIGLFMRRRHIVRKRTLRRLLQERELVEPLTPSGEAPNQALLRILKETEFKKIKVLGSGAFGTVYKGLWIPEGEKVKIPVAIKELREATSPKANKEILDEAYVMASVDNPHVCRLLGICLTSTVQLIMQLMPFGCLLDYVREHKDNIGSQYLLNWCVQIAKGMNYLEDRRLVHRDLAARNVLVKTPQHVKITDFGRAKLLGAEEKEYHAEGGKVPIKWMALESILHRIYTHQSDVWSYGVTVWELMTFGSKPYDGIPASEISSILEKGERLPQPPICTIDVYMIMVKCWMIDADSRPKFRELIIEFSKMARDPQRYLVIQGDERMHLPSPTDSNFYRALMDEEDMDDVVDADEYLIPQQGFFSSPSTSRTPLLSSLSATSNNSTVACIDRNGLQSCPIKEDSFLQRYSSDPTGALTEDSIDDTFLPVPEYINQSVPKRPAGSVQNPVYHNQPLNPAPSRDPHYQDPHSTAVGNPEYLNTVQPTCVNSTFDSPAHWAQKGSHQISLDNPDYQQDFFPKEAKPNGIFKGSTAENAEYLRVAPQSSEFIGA
How it was run: (§2)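 Kinase + cmpd preinc 10 min; start with mix of 3 mM ATP / 30 uM fluorescein poly-GluTyr (mix concs); 10 min RT; stop with 5 nM Tb-pY20 Ab / 40 mM EDTA. Buffer 50 mM HEPES pH 7.5, 10 mM MgCl2.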

[4] = molecular target: EGFR WT (Homo sapiens (Human), UniProt P00533); experiment: TR-FRET assay for ERBB kinases; type: biochemical; conditions: geometric mean if measured more than once
How it was run: as §2

[5] = molecular target: EGFR L858R/T790M/C797S (Homo sapiens (Human), UniProt P00533, C797S/L858R/T790M); experiment: TR-FRET assay for ERBB kinases; type: biochemical; conditions: geometric mean if measured more than once
How it was run: as §2

[6] = molecular target: EGFR L858R/T790M double mutant (H1975) (Homo sapiens (Human), UniProt P00533, L858R/T790M); experiment: EGFR protein degradation assay (Western blot); type: cell-based; conditions: 72 hours, 300 nM to 10 nM
EGFR L858R/T790M double mutant (H1975), sequence (P00533 25-1210 T790M/L858R): as above
How it was run: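 EGFR protein levels were measured by immunoblotting. Lysate protein was quantified by BCA, and 10 μg per sample was separated by SDS/PAGE at 165V for 2 hours and transferred to PVDF. Membranes were blocked in TBS-T with 5% milk for 1 hour, probed overnight at 4° C with EGFR and tubulin antibodies, then secondary antibody for 1 hour, and detected by ECL on a Chemidoc.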

[7] = molecular target: EGFR L858R/T790M/C797S triple mutant (H520*) (Homo sapiens (Human), UniProt P00533, C797S/L858R/T790M); experiment: EGFR protein degradation assay (Western blot); type: cell-based; conditions: 72 hours, 300 nM to 10 nM
How it was run: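 EGFR loss in the triple-mutant line measured by immunoblot: clarified lysates normalised by BCA, run on 4-12% Bis-Tris gels, blotted to PVDF, probed with HRP anti-rabbit secondary. Before lysis, cells were dosed from 1, 0.3, 0.1, 0.03 and 0.01 mM DMSO stocks (not final concentrations) after overnight culture at 37° C.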

[8] = molecular target: HER2WT (Homo sapiens (Human), UniProt P04626); experiment: TR-FRET assay for ERBB kinases; type: biochemical; conditions: geometric mean if measured more than once
How it was run: as §1

[9] = molecular target: EGFR L858R (Homo sapiens (Human), UniProt P00533, L858R); experiment: TR-FRET assay for ERBB kinases; type: biochemical; conditions: geometric mean if measured more than once
EGFR L858R, sequence (P00533 25-1210 L858R): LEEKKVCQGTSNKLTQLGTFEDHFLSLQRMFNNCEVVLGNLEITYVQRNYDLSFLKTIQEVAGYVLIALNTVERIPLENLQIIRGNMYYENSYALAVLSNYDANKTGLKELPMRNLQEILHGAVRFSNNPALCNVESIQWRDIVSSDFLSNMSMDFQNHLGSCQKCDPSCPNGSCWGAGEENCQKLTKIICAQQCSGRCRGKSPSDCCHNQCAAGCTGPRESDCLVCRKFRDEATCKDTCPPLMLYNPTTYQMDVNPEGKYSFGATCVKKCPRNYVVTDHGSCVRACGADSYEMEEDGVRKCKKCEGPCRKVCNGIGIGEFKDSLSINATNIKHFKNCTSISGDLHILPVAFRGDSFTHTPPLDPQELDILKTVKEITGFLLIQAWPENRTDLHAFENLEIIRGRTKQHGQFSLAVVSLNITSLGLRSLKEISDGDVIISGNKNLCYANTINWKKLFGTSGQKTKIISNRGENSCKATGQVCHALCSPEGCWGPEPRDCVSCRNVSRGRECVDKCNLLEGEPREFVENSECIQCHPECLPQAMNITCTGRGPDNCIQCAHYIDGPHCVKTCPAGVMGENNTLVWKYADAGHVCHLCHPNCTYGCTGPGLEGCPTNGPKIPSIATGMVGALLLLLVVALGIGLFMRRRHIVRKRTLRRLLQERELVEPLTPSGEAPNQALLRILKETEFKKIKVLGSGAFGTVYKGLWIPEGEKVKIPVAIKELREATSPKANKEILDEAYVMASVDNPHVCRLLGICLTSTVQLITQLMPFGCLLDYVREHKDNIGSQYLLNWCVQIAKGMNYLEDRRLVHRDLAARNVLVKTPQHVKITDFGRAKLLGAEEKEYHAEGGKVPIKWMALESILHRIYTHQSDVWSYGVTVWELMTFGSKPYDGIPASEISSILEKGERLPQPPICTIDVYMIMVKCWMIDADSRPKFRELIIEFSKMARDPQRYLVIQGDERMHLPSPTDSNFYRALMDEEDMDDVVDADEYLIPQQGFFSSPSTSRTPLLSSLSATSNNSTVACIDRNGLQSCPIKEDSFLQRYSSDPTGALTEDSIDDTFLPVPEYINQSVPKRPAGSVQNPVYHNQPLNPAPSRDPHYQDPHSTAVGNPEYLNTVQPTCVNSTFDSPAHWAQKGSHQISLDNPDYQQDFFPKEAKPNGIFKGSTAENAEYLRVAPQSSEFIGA
How it was run: as §1

[10] = molecular target: EGFR Δ19/746/750 T790M (Homo sapiens (Human), UniProt P00533, DEL746-750/T790M); experiment: TR-FRET assay for ERBB kinases; type: biochemical; conditions: geometric mean if measured more than once
EGFR Δ19/746/750 T790M, sequence (P00533 other isoform, or with tags, fused parts or gaps T790M/del 1-694/del 746-750 limits assumed): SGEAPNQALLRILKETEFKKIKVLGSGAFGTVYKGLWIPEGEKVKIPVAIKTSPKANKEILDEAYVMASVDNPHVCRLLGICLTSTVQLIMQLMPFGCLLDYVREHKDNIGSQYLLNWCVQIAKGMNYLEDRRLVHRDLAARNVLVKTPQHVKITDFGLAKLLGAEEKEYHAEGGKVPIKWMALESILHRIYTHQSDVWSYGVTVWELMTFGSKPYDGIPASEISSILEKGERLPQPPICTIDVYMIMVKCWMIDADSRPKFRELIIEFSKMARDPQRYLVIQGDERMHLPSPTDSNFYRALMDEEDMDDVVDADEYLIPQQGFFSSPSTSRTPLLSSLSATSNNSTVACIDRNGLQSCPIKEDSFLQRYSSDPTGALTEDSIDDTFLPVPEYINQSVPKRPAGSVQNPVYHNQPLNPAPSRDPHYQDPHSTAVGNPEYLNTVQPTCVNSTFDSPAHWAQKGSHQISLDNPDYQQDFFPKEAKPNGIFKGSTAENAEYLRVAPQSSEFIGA
How it was run: as §1

[11] = molecular target: EGFR Δ19/746/750 (Homo sapiens (Human), UniProt P00533, DEL746-750); experiment: TR-FRET assay for ERBB kinases; type: biochemical; conditions: geometric mean if measured more than once
EGFR Δ19/746/750, sequence (P00533 other isoform, or with tags, fused parts or gaps del 1-694/del 746-750 limits assumed): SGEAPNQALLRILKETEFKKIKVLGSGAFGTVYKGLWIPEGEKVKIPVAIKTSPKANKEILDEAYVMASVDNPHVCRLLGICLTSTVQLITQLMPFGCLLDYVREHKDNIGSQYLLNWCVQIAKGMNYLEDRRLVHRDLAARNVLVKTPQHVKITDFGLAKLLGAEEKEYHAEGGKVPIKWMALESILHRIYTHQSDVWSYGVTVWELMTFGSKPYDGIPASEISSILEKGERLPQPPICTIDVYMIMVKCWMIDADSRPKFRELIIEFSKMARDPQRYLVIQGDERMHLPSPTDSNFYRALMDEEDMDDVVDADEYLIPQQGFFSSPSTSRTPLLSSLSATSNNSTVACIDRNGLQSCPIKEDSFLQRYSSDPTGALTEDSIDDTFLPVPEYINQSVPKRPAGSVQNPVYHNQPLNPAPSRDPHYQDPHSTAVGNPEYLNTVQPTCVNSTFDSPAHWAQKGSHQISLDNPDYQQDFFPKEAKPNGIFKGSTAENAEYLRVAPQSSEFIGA
How it was run: as §1

[12] = molecular target: EGFR Exon 20 ASV (HeLa*) (Homo sapiens (Human), UniProt P00533, DUP767-769); experiment: EGFR protein degradation assay (Western blot); type: cell-based; conditions: 72 hours, 300 nM to 10 nM
[13] = molecular target: EGFR-wt (MDA-MB-231 or MCF7 or A549 or OVCAR8) (Homo sapiens (Human), UniProt P00533); experiment: EGFR protein degradation assay (Western blot); type: cell-based; conditions: 72 hours, 300 nM to 10 nM
How it was run: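 EGFR degradation was assessed by Western blot. Cells expressing the appropriate EGFR were seeded in 6-well plates (300,000 cells per well) and adhered overnight. Media was removed, cells were washed with cold phosphate-buffered saline, scraped into 400 μl Cell Signaling lysis buffer plus protease inhibitor cocktail, and spun once at 10 000 rpm for 10 minutes. After BCA quantification, loading buffer and reducing agent were added. Gels loaded with 10 μg protein ran at 165V for 2 hours, and bands were visualized by chemiluminescence.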

EGFR Exon20NPG, sequence (P00533 other isoform, or with tags, fused parts or gaps del 1-694/ins NPG behind 770 limits assumed): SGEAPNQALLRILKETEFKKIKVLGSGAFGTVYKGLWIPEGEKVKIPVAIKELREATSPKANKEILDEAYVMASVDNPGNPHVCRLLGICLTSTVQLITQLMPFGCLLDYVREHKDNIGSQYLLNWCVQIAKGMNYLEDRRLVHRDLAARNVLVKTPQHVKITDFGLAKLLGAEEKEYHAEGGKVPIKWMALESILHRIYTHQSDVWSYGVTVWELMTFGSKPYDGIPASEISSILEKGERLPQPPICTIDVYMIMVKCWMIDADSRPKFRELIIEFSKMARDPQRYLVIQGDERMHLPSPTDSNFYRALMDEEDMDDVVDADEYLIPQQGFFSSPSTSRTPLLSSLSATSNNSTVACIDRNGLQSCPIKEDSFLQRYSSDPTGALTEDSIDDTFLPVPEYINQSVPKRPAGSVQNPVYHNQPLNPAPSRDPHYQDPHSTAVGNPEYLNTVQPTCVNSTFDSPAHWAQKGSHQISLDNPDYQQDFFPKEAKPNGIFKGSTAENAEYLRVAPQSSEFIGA

| Compound | IC50 [1] [µM] | IC50 [2] [µM] | IC50 [3] [µM] | IC50 [4] [µM] | IC50 [5] [µM] | EGFR protein remaining, EGFR L858R/T790M double mutant [6] | EGFR protein remaining, EGFR L858R/T790M/C797S triple mutant [7] | IC50 [8] [µM] | IC50 [9] [µM] | IC50 [10] [µM] | IC50 [11] [µM] | EGFR protein remaining, EGFR Exon 20 ASV [12] | EGFR protein remaining, EGFR-wt [13] |
| --- | --- | --- | --- | --- | --- | --- | --- | --- | --- | --- | --- | --- | --- |
| COC1(CCN2CCN(c3ccc4c(c3)C(=O)N(C3CCC(=O)NC3=O)C4=O)CC2)CCN(c2nccc(Nc3cc4c(cn3)nc(C)n4C(C)C)n2)CC1 (stereo not shown) [Example 78, 2-(2,6-dioxopiperidin-3-yl)-5-(4-(2-(1-(4-((1-isopropyl-2-methyl-1H-imidazo[4,5-c]pyridin-6-yl)amino)pyrimidin-2-yl)-4-methoxypiperidin-4-yl)ethyl)piperazin-1-yl)isoindoline-1,3-dione] | 5.6 | 25 | 0.25 | 5.7 | 0.025 | C (>80% EGFR protein remaining after 72 hours of incubation with the test compound at a concentration of 300 nM) | C (>80% EGFR protein remaining after 72 hours of incubation with the test compound at a concentration of 300 nM) | – | – | – | – | – | – |
| O=C1CCC(N2C(=O)c3cccc(NCCOCCOCCOCCOCCOCCN4CCN(Cc5ccc(-c6cc7c(NCc8ccccc8Cl)ncnc7[nH]6)cc5)CC4)c3C2=O)C(=O)N1 (stereo not shown) [Example 8, 4-((17-(4-(4-(4-((2-chlorobenzyl)amino)-7H-pyrrolo[2,3-d]pyrimidin-6-yl)benzyl)piperazin-1-yl)-3,6,9,12,15-pentaoxaheptadecyl)amino)-2-(2,6-dioxopiperidin-3-yl)isoindoline-1,3-dione] | 0.45 | – | 7.2 | 0.089 | 3.2 | – | – | 1.2 | 0.011 | 4.8 | 0.0017 | C (>80% EGFR protein remaining after 72 hours of incubation with the test compound at a concentration of 300 nM) | C (>80% EGFR protein remaining after 72 hours of incubation with the test compound at a concentration of 300 nM) |
| O=C1CCC(N2C(=O)c3cccc(NCCOCCc4ccc(-c5cc6c(NCc7ccccc7Cl)ncnc6[nH]5)cc4)c3C2=O)C(=O)N1 (stereo not shown) [compound 11] | 0.049 | – | > 30 | 0.0084 | 3.5 | – | – | 0.19 | 0.0004 | 17 | 0.00014 | C (>80% EGFR protein remaining after 72 hours of incubation with the test compound at a concentration of 300 nM) | C (>80% EGFR protein remaining after 72 hours of incubation with the test compound at a concentration of 300 nM) |
| O=C1CCC(N2C(=O)c3cccc(NCCOCCOCCOc4ccc(-c5cc6c(NCc7ccccc7Cl)ncnc6[nH]5)cc4)c3C2=O)C(=O)N1 (stereo not shown) [compound 12] | 5.7 | – | 9.1 | 0.5 | 10 | – | – | > 30 | 0.15 | 8.2 | 0.083 | C (>80% EGFR protein remaining after 72 hours of incubation with the test compound at a concentration of 300 nM) | C (>80% EGFR protein remaining after 72 hours of incubation with the test compound at a concentration of 300 nM) |
| Cc1ncsc1-c1ccc(CNC(=O)[C@@H]2C[C@@H](O)CN2C(=O)[C@@H](NC(=O)CCCCCOCCCCOCCCCOc2cc3ncnc(Nc4ccc(F)c(Cl)c4)c3cc2NC(=O)/C=C/CN(C)C)C(C)(C)C)cc1 [Example 66, (2S,4R)-1-((S)-2-(6-(4-(4-((4-((3-chloro-4-fluorophenyl)amino)-6-((E)-4-(dimethylamino)but-2-enamido)quinazolin-7-yl)oxy)butoxy)butoxy)hexanamido)-3,3-dimethylbutanoyl)-4-hydroxy-N-(4-(4-methylthiazol-5-yl)benzyl)pyrrolidine-2-carboxamide] | – | 6.6 | – | – | – | A (≤50% EGFR protein remaining after 72 hours of incubation with the test compound at a concentration between 300 nM and 10 nM) | C (>80% EGFR protein remaining after 72 hours of incubation with the test compound at a concentration of 300 nM) | – | – | – | – | B (≤80% and >50% EGFR protein remaining after 72 hours of incubation with the test compound at a concentration between 300 nM and 10 nM) | A (≤50% EGFR protein remaining after 72 hours of incubation with the test compound at a concentration between 300 nM and 10 nM) |
| Cc1ncsc1-c1ccc(CNC(=O)[C@@H]2C[C@@H](O)CN2C(=O)[C@@H](NC(=O)COCCOCCOc2ccc(-c3ccc4ncnc(Nc5ccc(OCc6cccc(F)c6)c(Cl)c5)c4c3)cc2)C(C)(C)C)cc1 [Example 97, (2S,4R)-1-((S)-2-(2-(2-(2-(4-(4-((3-Chloro-4-((3-fluorobenzyl)oxy)phenyl)amino)quinazolin-6-yl)phenoxy)ethoxy)ethoxy)acetamido)-3,3-dimethylbutanoyl)-4-hydroxy-N-(4-(4-methylthiazol-5-yl)benzyl)pyrrolidine-2-carboxamide] | > 30 | 29 | > 30 | 1.5 | > 30 | B (≤80% and >50% EGFR protein remaining after 72 hours of incubation with the test compound at a concentration between 300 nM and 10 nM) | – | – | – | – | – | A (≤50% EGFR protein remaining after 72 hours of incubation with the test compound at a concentration between 300 nM and 10 nM) | A (≤50% EGFR protein remaining after 72 hours of incubation with the test compound at a concentration between 300 nM and 10 nM) |
| Cc1ncsc1-c1ccc([C@H](C)NC(=O)[C@@H]2C[C@@H](O)CN2C(=O)[C@@H](NC(=O)CN2CCN(CCCC#Cc3cccc4c3C(=O)N(C(C(=O)Nc3nccs3)c3cc(F)ccc3O)C4)CC2)C(C)(C)C)cc1 (stereo partly drawn) [Example 80, (2S,4R)-1-((2S)-2-(2-(4-(5-(2-(1-(5-fluoro-2-hydroxyphenyl)-2-oxo-2-(thiazol-2-ylamino)ethyl)-3-oxoisoindolin-4-yl)pent-4-yn-1-yl)piperazin-1-yl)acetamido)-3,3-dimethylbutanoyl)-4-hydroxy-N—((S)-1-(4-(4-methylthiazol-5-yl)phenyl)ethyl)pyrrolidine-2-carboxamide] | 13 | > 30 | 4.7 | 4.7 | 2.2 | C (>80% EGFR protein remaining after 72 hours of incubation with the test compound at a concentration of 300 nM) | C (>80% EGFR protein remaining after 72 hours of incubation with the test compound at a concentration of 300 nM) | – | – | – | – | – | – |
| Cc1ncsc1-c1ccc([C@H](C)NC(=O)[C@H]2C[C@H](O)CN2C(=O)[C@@H](NC(=O)CN2CCN(CCCOCC#Cc3cccc4c3C(=O)N(C(C(=O)Nc3nccs3)c3cc(F)ccc3O)C4)CC2)C(C)(C)C)cc1 (stereo partly shown) [compound 90] | 3.4 | 29 | 0.74 | 1.3 | 0.69 | C (>80% EGFR protein remaining after 72 hours of incubation with the test compound at a concentration of 300 nM) | C (>80% EGFR protein remaining after 72 hours of incubation with the test compound at a concentration of 300 nM) | – | – | – | – | – | – |
